Measured values taken from patent US9216991B2 (Ares Trading S.A., priority 2012, dated 2015).
Where a name gives a salt, the structure may show the parent alone.

Columns and labels:
IRAK4 = biological target: T1, IRAK4 (Homo sapiens, UniProt Q9NWZ3); test: IRAK4 Enzymatic Assay; type: biochemical; conditions: His-TEV-IRAK4 20 ng/well, ATP 2 μM, STK1-biotin peptide 300 nM, 3 hours at 30° C., FlashPlate radioactivity
T1 construct: His (N); TEV cleavage site (N)
T1 sequence (Q9NWZ3 1-460): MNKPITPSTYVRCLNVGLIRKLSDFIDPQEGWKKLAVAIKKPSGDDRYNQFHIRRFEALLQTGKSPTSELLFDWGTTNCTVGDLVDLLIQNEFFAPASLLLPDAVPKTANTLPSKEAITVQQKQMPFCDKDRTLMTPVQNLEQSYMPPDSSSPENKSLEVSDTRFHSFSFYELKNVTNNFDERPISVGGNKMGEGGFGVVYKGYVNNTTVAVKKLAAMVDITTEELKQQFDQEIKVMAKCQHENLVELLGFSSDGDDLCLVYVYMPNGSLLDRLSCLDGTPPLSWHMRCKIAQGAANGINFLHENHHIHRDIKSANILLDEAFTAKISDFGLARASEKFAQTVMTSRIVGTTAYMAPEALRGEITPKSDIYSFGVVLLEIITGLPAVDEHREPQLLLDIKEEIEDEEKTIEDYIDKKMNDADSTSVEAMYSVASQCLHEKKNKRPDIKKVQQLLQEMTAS
Outline: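 Recombinant His-TEV-tagged IRAK4 (20 ng/well) phosphorylates biotinylated STK1 peptide (300 nM) with 2 μM ATP plus [^33P]ATP, 3 h at 30 °C in pH 7.0 HEPES buffer with MgCl2 and MnCl2; compounds tested 20 μM to 1 nM. Reaction stopped with EDTA; incorporated radioactivity counted on streptavidin FlashPlates.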

Row | Structure (SMILES) | melting point [°C] | IC50 (IRAK4) [nM]
1 | Cn1cc(-c2cccc(-c3ncc(-c4cnn(CCO)c4)cn3)c2)cn1 [Example 23, 2-(4-{2-[3-(1-Methyl-1H-pyrazol-4-yl)-phenyl]-pyrimidin-5-yl}-pyrazol-1-yl)-ethanol] | 234 to 236 | 100 to 1000
2 | Cn1cc(-c2cnc(-c3cccc(-c4cnn(C)c4)c3)nc2)cn1 [Example 32, 5-(1-Methyl-1H-pyrazol-4-yl)-2-[3-(1-methyl-1H-pyrazol-4-yl)-phenyl]-pyrimidine] | 199 to 200 | 100 to 1000
3 | Cn1cc(-c2cccc(-c3ncc(-c4cnn(CC(=O)N5CCCC(O)C5)c4)cn3)c2)cn1 (stereo not drawn) [Example 52, 1-(3-Hydroxy-piperidin-1-I)-2-(4-{2-[3-(1-methyl-1H-pyrazol-4-yl)-phenyl]-pyrimidin-5-yl}-pyrazol-1-yl)-ethanone] | 198 to 200 | 100 to 1000
4 | Cn1cc(-c2cccc(-c3ncc(-c4cnn(CC(=O)N5CC(O)C5)c4)cn3)c2)cn1 [Example 73, 1-(3-Hydroxy-azetidin-1-yl)-2-(4-{2-[3-(1-methyl-1H-pyrazol-4-yl)-phenyl]-pyrimidin-5-yl}-pyrazol-1-yl)-ethanone] | 177 to 181 | 100 to 1000
5 | Cn1cc(-c2cccc(-c3ncc(-c4cnn(CC(=O)N5CCC(O)C5)c4)cn3)c2)cn1 (stereo not drawn) [Example 74, 1-(3-Hydroxy-pyrrolidin-1-yl)-2-(4-{2-[3-(1-methyl-1H-pyrazol-4-yl)-phenyl]-pyrimidin-5-yl}-pyrazol-1-yl)-ethanone] | 237 to 238 | 100 to 1000
6 | Cn1cc(-c2cccc(-c3ncc(-c4cnn(C5CCS(=O)(=O)C5)c4)cn3)c2)cn1 (stereo not drawn) [Example 219, 5-[1-(1,1-Dioxo-tetrahydro-1lambda6-thiophen-3-yl)-1H-pyrazol-4-yl]-2-[3-(1-methyl-1H-pyrazol-4-yl)-phenyl]-pyrimidine] | 247 to 250 | 100 to 1000
7 | Cn1cc(-c2cccc(-c3ncc(-c4cnn([C@H]5CC[C@H](OCCO)CC5)c4)cn3)c2)cn1 [Example 277, Trans-2-[4-(-4-{2-[3-(1-Methyl-1H-pyrazol-4-yl)-phenyl]-pyrimidin-5-yl}-pyrazol-1-yl)-cyclohexyloxy]-ethanol] | 218.7 to 223.3 | < 100

Second part, the compound after the results:

Row | melting point [°C] | IC50 (IRAK4) [nM] | Structure (SMILES)
8 | 50.3 to 55 |  | CN1CC2CC1CN2C(=O)[C@H]1CC[C@H](n2cc(-c3cnc(-c4cccc(-c5cnn(C)c5)c4)nc3)cn2)CC1 (stereo partly drawn) (as salt: hydrobromid) [Example 278, (5-Methyl-2,5-diaza-bicyclo[2.2.1]hept-2-yl)-trans-[4-(-4-{2-[3-(1-methyl-1H-pyrazol-4-yl)-phenyl]-pyrimidin-5-yl}-pyrazol-1-yl)-cyclohexyl]-methanone hydrobromide]
9 | 207.5 to 212 | 100 to 1000 | Cn1cc(-c2cccc(-c3ncc(-c4cnn([C@@H]5CCC[C@@H](O)C5)c4)cn3)c2)cn1 (relative stereo) [Example 290, Trans-3-(4-{2-[3-(1-Methyl-1H-pyrazol-4-yl)-phenyl]-pyrimidin-5-yl}-pyrazol-1-yl)-cyclohexanol]
10 | 190.1 to 201.7 | < 100 | Cn1cc(-c2cccc(-c3ncc(-c4cnn([C@H]5CC[C@]6(CO)COC[C@]6(O)C5)c4)cn3)c2)cn1 (single isomer, unassigned) [Example 280]
11 | 191.4 to 199.7 | 100 to 1000 | Cn1cc(-c2cccc(-c3ncc(-c4cnn([C@@H]5CC[C@@]6(CO)COC[C@@]6(O)C5)c4)cn3)c2)cn1 (single isomer, unassigned) [Example 281]
12 | 175.8 to 180.6 | < 100 | Cn1cc(-c2cccc(-c3ncc(-c4cnn([C@H]5CCCNC5)c4)cn3)c2)cn1 [Example 283, 2-[3-(1-Methyl-1H-pyrazol-4-yl)-phenyl]-5-((S)-1-piperidin-3-yl-1H-pyrazol-4-yl)-pyrimidine]
13 | 255 to 258.7 | < 100 | Cn1cc(-c2cccc(-c3ncc(-c4cnn([C@H]5CC[C@@]6(CC5)CNC(=O)C6)c4)cn3)c2)cn1 [Example 286, trans-8-(4-{2-[3-(1-Methyl-1H-pyrazol-4-yl)-phenyl]-pyrimidin-5-yl}-pyrazol-1-yl)-2-aza-spiro[4.5]decan-3-one]
14 | 262 to 265.8 | < 100 | Cn1cc(-c2cccc(-c3ncc(-c4cnn([C@H]5CC[C@]6(CC5)CNC(=O)C6)c4)cn3)c2)cn1 [Example 287, cis-8-(4-(2-(3-(1-methyl-1H-pyrazol-4-yl)phenyl)pyrimidin-5-yl)-1H-pyrazol-1-yl)-2-azaspiro[4.5]decan-3-one]
15 | 172 to 179.2 | < 100 | Cn1cc(-c2cccc(-c3ncc(-c4cnn(C5CCCC(S(C)(=N)=O)C5)c4)cn3)c2)cn1 (stereo not drawn) [Example 288, imino(methyl)(3-(4-(2-(3-(1-methyl-1H-pyrazol-4-yl)phenyl)pyrimidin-5-yl)-1H-pyrazol-1-yl)cyclohexyl)-λ6-sulfanone]
16 |  | 100 to 1000 | Cn1cc(-c2ccc(F)c(-c3ncc(-c4cnn([C@H]5CC[C@H](O)CC5)c4)cn3)c2)cn1 [Example 292, 4-(4-{2-[2-Fluoro-5-(1-methyl-1H-pyrazol-4-yl)-phenyl]-pyrimidin-5-yl}-pyrazol-1-yl)-cyclohexanol]
